According to publication PMC8587043, “An Investigation into the Interaction between Double Hydroxide-Based Antioxidant Benzophenone Derivatives and Cyclooxygenase 2” (Molecules, 2021):

Tests used:
[1] = target: T1, COX2 (Homo sapiens, UniProt P35354); experiment: Biolayer interferometry (BLI) binding to His-tagged COX2 on Ni-NTA sensors; conditions: for Kd: BLI, one-to-one binding model, 4–6 point concentration series, read-out: KD (equilibrium dissociation constant); for COX2 binding in BLI: initial assay at 100 μM, binders re-assayed in concentration series
T1 construct: purchased Sino Biological Co. (Beijing, China)
T1 sequence (P35354 18-604): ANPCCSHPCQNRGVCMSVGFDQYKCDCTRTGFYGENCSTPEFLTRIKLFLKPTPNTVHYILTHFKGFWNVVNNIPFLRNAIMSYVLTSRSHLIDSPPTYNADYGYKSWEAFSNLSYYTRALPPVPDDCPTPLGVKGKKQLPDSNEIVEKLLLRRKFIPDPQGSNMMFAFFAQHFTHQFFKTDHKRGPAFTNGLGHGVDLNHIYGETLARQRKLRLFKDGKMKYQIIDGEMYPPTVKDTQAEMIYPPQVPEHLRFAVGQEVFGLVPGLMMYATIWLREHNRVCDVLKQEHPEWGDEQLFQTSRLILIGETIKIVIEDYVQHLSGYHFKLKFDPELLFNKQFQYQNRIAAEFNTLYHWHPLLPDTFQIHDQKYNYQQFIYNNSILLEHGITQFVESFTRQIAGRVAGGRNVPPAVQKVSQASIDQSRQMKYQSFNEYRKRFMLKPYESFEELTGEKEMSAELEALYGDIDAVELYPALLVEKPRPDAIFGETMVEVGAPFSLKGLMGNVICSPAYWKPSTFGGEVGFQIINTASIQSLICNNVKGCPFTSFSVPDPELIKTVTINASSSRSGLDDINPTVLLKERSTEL
Source text: The label-free real-time binding assay, BLI, was firstly performed to evaluate the potential COX2 binding activities of the twelve novel compounds. COX2 protein was captured onto the Ni-NTA sensors, by the virtue of its His-tag, followed by exposure to small-molecule compound. The binding of small-molecule compound to the biosensor increased the layer thickness of the sensor, resulting in an interference wavelength shift recorded by BLI. All 12 compounds were initially assayed at a single concentration of 100 μM (Figure 2a).
A significant shift in the association curve was observed upon addition of different concentrations of compounds DB2, SC2 and YB2 to COX2 in a concentration dependent manner (Figure 2b–d). During the dissociation step, it was also observed that the signal decreased to the baseline. That was a sign of a total protein-ligand dissociation, thus indicating the interaction was reversible. The real-time binding curves were generated fitting to a one-to-one binding model. The ratio of koff (dissociation) and kon (association) constants was equilibrium dissociation constants (KD).
His-tagged COX2 solution (40 μg∙mL^−1), which was prepared in phosphate buffer saline (PBS), was immobilized on Ni-NTA biosensor tips for 600 s. To remove drift and well-to-well artifacts, we performed double reference subtraction with FortéBio data analysis software. All the twelve compounds stock solutions (10 mM) were prepared in dimethyl sulfoxide (DMSO). The stock solutions were diluted with PBS containing 0.1% […] (PBST) to 100 μM for the initial assay. Typically, for re-assay, the stock solutions were serially diluted (4–6 point serial dilutions) in PBST. Compound testing was performed sequentially taking baseline, association and dissociation steps. Each of these steps took 60 s. The alignment of data was carried out using baseline signal and curves fitted with a one to one best-fit model in FortéBio’s data analysis software.

[2] = system: EA.hy926 cells; experiment: Protective effect against H2O2-induced oxidative damage, MTT assay; assay type: cell-based, human; conditions: for EC50: protection against H2O2-induced damage (400 µmol·L^−1, 4 h), n = 3, mean ± SD
Protocol: Hydrogen peroxide (H2O2), a small molecule and functions as oxidative stress and a second messenger which contributes to cell damage or death, could directly induce inflammation in several cell lines. H2O2-induced cell damage is a commonly used model for antioxidant activity evaluation. […] Thus, the concentration of 400 µmol·L^−1 at 4 h was chosen as the model.
Compound SC2 stock solutions were prepared in DMSO. The stock solutions were diluted with FBS free DMEM to different target concentrations (DMSO concentrations ≤ 0.5% v:v). Cells (100 μL, 2 × 10^5 cells∙mL^−1) were seeded on 96-well plates and cultured for 24 h. The medium was then replaced with fresh media containing H2O2 with different concentrations (0, 100, 200, 300, 400, 500, and 600 μmol·L^−1 in FBS free DMEM) and compound SC2 (50, 40, 30, 20, 10 µmol·L^−1), which were transferred to the incubator and cultured for additional time (2, 4, and 6 h). The medium was then replaced with 100 μL of FBS free DMEM and MTT (10 μL, 5 mg·mL^−1 in PBS) and after 4 h the medium was replaced with DMSO (100 μL). A microplate reader (SpectraMaxPlus384, Molecular Devices, United States) was used to record the absorbance at 490 nm for each well of the plates. Cell viability was measured via MTT assay. Survival rate (%) = (Asample group/Acontrol group) × 100%.
Cells (100 μL, 2 × 10^5 cells·mL^−1) were seeded in 96-well plates for 24 h. Cells were treated with different groups and cell viability was measured via MTT assay. The protection rates to oxidative damage were determined and EC50 values were calculated. The protection rates to cells were calculated using the following formula: Protection rate (%) = (Apretreatment group − Amodel group)/(Acontrol group − Amodel group) × 100%.

Kd [1] | COX2 binding in BLI [1] | SMILES | EC50 ([2]; Homo sapiens, EA.hy 926, 4 h) | protection from H2O2 induced cell damage ([2]; 5 µmol·L^−1 compound, four pre-chosen H2O2 treatments) | EC50 [2] | protection rate compared with positive controls (fenofibrate and quereetin) ([2]; statistical comparison)
394000 nM | interacted with the protein | CCCCc1ccc(C(=O)c2c(Br)cc(O)c(O)c2O)cc1 [DB2] | 1360 ± 463 nM |  |  | 
627000 nM | interacted with the protein | CC(C)(C)c1ccc(C(=O)c2c(Cl)cc(O)c(O)c2O)cc1 [SC2] | 6.25 ± 0.415 nM | protects the cells from H2O2 induced cell damage | 6.25 ± 0.415 nM | 
766000 nM | interacted with the protein | CC(C)Cc1ccc(C(=O)c2c(Br)cc(O)c(O)c2O)cc1 [YB2] | 418 ± 24.6 nM |  |  | no significant difference
